Key:
[1] = molecular target: T1, IGF1R (Homo sapiens, UniProt P08069); assay: IGF1R kinase assay; format: biochemical; details: Table 1; read-out: IGF1R IC50
T1 construct: 6×His- or GST-tagged kinase domain fragments of the corresponding RTKs expressed in baculovirus system; host or cells: baculovirus system
Method: To determine inhibition of several tyrosine kinases, such as IGF1R, InsR, Alk, TrkA and Jak2, kinase assays are conducted using either Kinase-Glo (Promega) or AlphaScreen (PerkinElmer) kinase assay platforms. The Kinase-Glo Luminescent Kinase Assay is a homogeneous method for measuring kinase activity by determining the amount of ATP remaining after a kinase reaction. The luminescent signal is proportional to the amount of ATP and inversely proportional to the amount of kinase activity. Tyrosine kinase PT66 AlphaScreen Assay is a high-sensitivity homogeneous, anti-phosphotyrosine antibody-mediated luminescent proximity method measuring incorporation of phosphate in synthetic poly(Glu-Tyr) substrate. The kinase preparations used consist of purified recombinant, 6×His- or GST-tagged kinase domain fragments of the corresponding RTKs expressed in baculovirus system.
Compounds with a range of concentrations 40 μM, 20 μM, 10 μM, 5 μM, 2.5 μM, 1.25 μM, 0.625 μM, 0.3125 μM, 0.15625 μM and 0.078125 μM were incubated with NPM-ALK, which was produced in insect cells as a 6×HIS-tagged fusion protein and purified using nickel-charged resin chromatography, for 30 minutes at RT in the presence of 10 μM ATP and 7.0 ng biotinylated poly-GT. A 1:1 mixture of […] and donor beads was then added to the reaction and incubated for an additional 60 minutes at RT. The assay was conducted on a MultiPROBE liquid handling workstation (PerkinElmer) in a 384-well plate format with a total reaction volume of 40 μL per well. Working stocks of all compounds were dissolved in 100% DMSO and serial dilutions of the compounds were performed using kinase buffer (50 mM Tris-HCl (pH 7.5), 5 mM MgCl2, 5 mM MnCl2, 2 mM DTT (added freshly before use), 0.01% Tween-20) containing 5% DMSO. […] Data were collected as optical readings at 520-680 nm on a Fusion™ microplate analyzer (PerkinElmer), and IC50 and Ki values calculated using PRISM3.0 software (GraphPad Software, Inc., San Diego, Calif.). The same assay was also used with minor modifications to assess the IC50 and Ki values for selected compounds against five other tyrosine kinases (IRK, IGF1R, Flt3, Abl, Src), all of which were purchased from commercial vendors. PolyGT-Biotin was bought from CIS Biointernational Cat. #61GT0BLD; ATP—from Sigma Cat. # A7699; sodium orthovanadate—from Sigma Cat. #S-6508; phosphotyrosine (PT66) assay kit from PerkinElmer Cat. #6760602M; automated workstation tips (20 μL): PerkinElmer Cat. #6000657; and OptiPlate-384 (white)—from PerkinElmer Cat. #6007299.

[2] = molecular target: ALK (Homo sapiens, UniProt Q9UM73); assay: ALK kinase assay (Kinase-Glo / AlphaScreen, purified NPM-ALK); format: biochemical; parameters: fused to the complete intracytoplasmic portion of ALK containing the functional tyrosine kinase domain; 6xHis; made in house; host or cells: insect cells; the other entry of the earlier key: NPM1 (P06748, Nucleophosmin); details: Table 1; read-out: ALK IC50
Chain of ALK (Q9UM73 with tags, fused parts or gaps): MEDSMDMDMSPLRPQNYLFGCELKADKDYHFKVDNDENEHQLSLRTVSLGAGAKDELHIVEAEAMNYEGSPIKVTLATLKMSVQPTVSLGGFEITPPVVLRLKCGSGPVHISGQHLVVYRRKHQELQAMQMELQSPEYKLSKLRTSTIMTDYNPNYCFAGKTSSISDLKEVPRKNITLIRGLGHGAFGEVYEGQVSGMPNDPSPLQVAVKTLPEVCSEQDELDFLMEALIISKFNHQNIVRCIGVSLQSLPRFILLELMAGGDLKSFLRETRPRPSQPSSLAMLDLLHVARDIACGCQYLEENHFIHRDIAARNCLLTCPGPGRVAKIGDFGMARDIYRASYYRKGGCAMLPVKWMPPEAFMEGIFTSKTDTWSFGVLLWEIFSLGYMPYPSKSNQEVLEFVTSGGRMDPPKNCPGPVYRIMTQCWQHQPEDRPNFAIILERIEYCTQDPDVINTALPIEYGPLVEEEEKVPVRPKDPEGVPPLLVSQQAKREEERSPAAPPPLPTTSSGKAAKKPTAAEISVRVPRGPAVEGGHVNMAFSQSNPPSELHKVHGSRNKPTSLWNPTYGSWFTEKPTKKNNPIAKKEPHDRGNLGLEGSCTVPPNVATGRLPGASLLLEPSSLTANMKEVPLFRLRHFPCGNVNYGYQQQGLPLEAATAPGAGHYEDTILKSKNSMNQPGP

T1 sequence (P08069 999-1274 limits assumed): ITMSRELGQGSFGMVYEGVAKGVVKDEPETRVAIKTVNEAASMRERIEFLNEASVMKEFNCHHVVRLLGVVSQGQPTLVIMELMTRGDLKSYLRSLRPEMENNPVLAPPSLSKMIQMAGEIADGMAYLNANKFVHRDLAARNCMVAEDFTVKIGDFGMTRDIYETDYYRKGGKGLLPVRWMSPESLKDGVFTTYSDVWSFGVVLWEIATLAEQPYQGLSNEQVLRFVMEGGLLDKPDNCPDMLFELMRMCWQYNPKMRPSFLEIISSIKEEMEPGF

Compound | IC50 [1] [nM] | IC50 [2] [nM]
C[C@H](CN1C(=O)c2cc3nc(-c4c(N[C@@H](C)Cc5sccc5Cl)cc[nH]c4=O)[nH]c3cc2C1=O)N(C)C | > 1000 | 10 to 100
CN1CCC(N2C(=O)c3cc4nc(-c5c(N[C@H](CO)Cc6ccccc6)cc[nH]c5=O)[nH]c4cc3C2=O)CC1 | – | > 1000
C[C@@H](Cc1cccs1)Nc1cc[nH]c(=O)c1-c1nc2cc3c(cc2[nH]1)C(=O)N(CCCN1CCCC1)C3=O | > 1000 | 100 to 250
C[C@@H](Cc1ccccc1F)Nc1cc[nH]c(=O)c1-c1nc2cc3c(cc2[nH]1)CN(CCN1CCCC1)C3=O | 250 to 1000 | 100 to 250
Cc1noc(C)c1CC(C)Nc1cc[nH]c(=O)c1-c1nc2cc3c(cc2[nH]1)C(=O)N(CCCN1CCCC1)C3 (stereo not shown) | > 1000 | > 1000
C[C@@H](Cc1sccc1Cl)Nc1cc[nH]c(=O)c1-c1nc2cc3c(cc2[nH]1)C(=O)N(C[C@H](C)N(C)C)C3 | 250 to 1000 | < 10
Cc1csc(CC(C)Nc2cc[nH]c(=O)c2-c2nc3cc4c(cc3[nH]2)C(=O)N(CCCN2CCCC2)C4)c1 (stereo not shown) | 250 to 1000 | 250 to 1000
Cc1noc(C)c1CC(C)Nc1cc[nH]c(=O)c1-c1nc2cc3c(cc2[nH]1)C(=O)N(CCCN1CCCC1)C3=O (stereo not shown) | > 1000 | > 1000
COC[C@@H](Cc1ccccc1)Nc1cc[nH]c(=O)c1-c1nc2cc3c(cc2[nH]1)C(=O)N(C1CCN(C)CC1)C3=O | – | > 1000
CNCCN1Cc2cc3[nH]c(-c4c(N[C@@H](C)Cc5cc(F)ccc5C)cc[nH]c4=O)nc3cc2C1=O [drawing 348] | 10 to 100 | 250 to 1000
CCc1ccc(CC(C)Nc2cc[nH]c(=O)c2-c2nc3cc4c(cc3[nH]2)C(=O)N(CCCN2CCCC2)C4)s1 (stereo not shown) | > 1000 | > 1000
CC(Cc1ccsc1)Nc1cc[nH]c(=O)c1-c1nc2cc3c(cc2[nH]1)C(=O)N(CCCN1CCCC1)C3=O (stereo not shown) | – | 100 to 250
Cc1ccccc1C[C@H](C)Nc1cc[nH]c(=O)c1-c1nc2cc3c(cc2[nH]1)CN(CCN1CCCC1)C3=O | 250 to 1000 | 10 to 100
C[C@@H](Cc1cccs1)Nc1cc[nH]c(=O)c1-c1nc2cc3c(cc2[nH]1)C(=O)N(CCN1CCCC1)C3=O | 250 to 1000 | 100 to 250
C[C@@H](Cc1sccc1Cl)Nc1cc[nH]c(=O)c1-c1nc2cc3c(cc2[nH]1)C(=O)N([C@@H](C)CN(C)C)C3 | 100 to 250 | 10 to 100
CCN1CCC[C@@H]1CN1Cc2cc3nc(-c4c(N[C@@H](C)Cc5sccc5C)cc[nH]c4=O)[nH]c3cc2C1=O | 250 to 1000 | 100 to 250
C[C@H](CN(C)C)N1Cc2cc3nc(-c4c(N[C@@H](C)Cc5sccc5Cl)cc[nH]c4=O)[nH]c3cc2C1=O | 100 to 250 | 10 to 100

Compound | IC50 [1] [nM] | IC50 [2] [nM]
CCC(Cc1cccs1)Nc1cc[nH]c(=O)c1-c1nc2cc3c(cc2[nH]1)C(=O)N(CCCN1CCCC1)C3=O (stereo not shown) | – | 250 to 1000
CC(Cc1ccsc1)Nc1cc[nH]c(=O)c1-c1nc2cc3c(cc2[nH]1)C(=O)N(CCCN1CCCC1)C3 (stereo not shown) | 250 to 1000 | 250 to 1000
COC[C@H](Cc1ccccc1)Nc1cc[nH]c(=O)c1-c1nc2cc3c(cc2[nH]1)C(=O)N(C1CCN(C)CC1)C3=O | – | > 1000
Cc1c(F)cc(F)cc1C[C@H](C)Nc1cc[nH]c(=O)c1-c1nc2cc3c(cc2[nH]1)CN(CCN1CCCC1)C3=O | 250 to 1000 | > 1000
CCN1CCC[C@H]1CN1Cc2cc3nc(-c4c(N[C@@H](C)Cc5sccc5C)cc[nH]c4=O)[nH]c3cc2C1=O | 100 to 250 | 10 to 100
C[C@H](Nc1cc[nH]c(=O)c1-c1nc2cc3c(cc2[nH]1)C(=O)N(CCCN1CCCC1)C3=O)[C@H](O)c1ccccc1 | 250 to 1000 | 100 to 250
C[C@H](CN1Cc2cc3nc(-c4c(N[C@@H](C)Cc5sccc5Cl)cc[nH]c4=O)[nH]c3cc2C1=O)N(C)C | 250 to 1000 | < 10
Cc1c(F)cc(F)cc1C[C@H](C)Nc1cc[nH]c(=O)c1-c1nc2cc3c(cc2[nH]1)CN(CCN(C)C)C3=O | 250 to 1000 | 100 to 250
Cc1c(C[C@H](C)Nc2cc[nH]c(=O)c2-c2nc3cc4c(cc3[nH]2)CN(CCN(C)C)C4=O)ccc(F)c1F | > 1000 | > 1000
Cc1ccsc1C[C@H](C)Nc1cc[nH]c(=O)c1-c1nc2cc3c(cc2[nH]1)C(=O)N(CCN(C)CCS(C)(=O)=O)C3=O | > 1000 | 100 to 250
C[C@@H](Cc1sccc1Cl)Nc1cc[nH]c(=O)c1-c1nc2cc3c(cc2[nH]1)C(=O)N(C[C@H](C)N(C)C)C3=O | > 1000 | 10 to 100
Cc1ccsc1C[C@H](C)Nc1cc[nH]c(=O)c1-c1nc2cc3c(cc2[nH]1)C(=O)N(CC(C)CN1CCCC1)C3 (stereo partly shown) | 250 to 1000 | 10 to 100
C[C@@H](Cc1sccc1Cl)Nc1cc[nH]c(=O)c1-c1nc2cc3c(cc2[nH]1)C(=O)N(CCN1CCCC1)C3=O | 250 to 1000 | 100 to 250
Cc1ccccc1C[C@H](C)Nc1cc[nH]c(=O)c1-c1nc2cc3c(cc2[nH]1)C(=O)N(CCN1CCCC1)C3=O | > 1000 | 10 to 100
CCC(Cc1cccs1)Nc1cc[nH]c(=O)c1-c1nc2cc3c(cc2[nH]1)C(=O)N(CCCN1CCCC1)C3 (stereo not shown) | – | > 1000
C[C@@H](Cc1cccs1)Nc1cc[nH]c(=O)c1-c1nc2cc3c(cc2[nH]1)C(=O)N(CCCCN1CCCC1)C3 | > 1000 | 100 to 250
COc1ccc(-c2ccc(CC(C)Nc3cc[nH]c(=O)c3-c3nc4cc5c(cc4[nH]3)C(=O)N(CCCN3CCCC3)C5)s2)cc1 (stereo not shown) | > 1000 | > 1000

The next lines start with the values.

IC50 [1] [nM] | IC50 [2] [nM] | Compound
> 1000 | > 1000 | Cc1c(C[C@H](C)Nc2cc[nH]c(=O)c2-c2nc3cc4c(cc3[nH]2)CN(CCN2CCCC2)C4=O)ccc(F)c1F
250 to 1000 | 100 to 250 | CC(Cc1cccs1)Nc1cc[nH]c(=O)c1-c1nc2cc3c(cc2[nH]1)CN(CCCN1CCCC1)C3=O (stereo not shown)
250 to 1000 | 250 to 1000 | COc1ccsc1C[C@H](C)Nc1cc[nH]c(=O)c1-c1nc2cc3c(cc2[nH]1)CN(CCCN1CCCC1)C3=O
250 to 1000 | 250 to 1000 | C[C@@H](Cc1cc(F)cc(F)c1F)Nc1cc[nH]c(=O)c1-c1nc2cc3c(cc2[nH]1)CN(CCN1CCCC1)C3
100 to 250 | > 1000 | Cc1cc(C)c(CC(C)Nc2cc[nH]c(=O)c2-c2nc3cc4c(cc3[nH]2)C(=O)N(CCCN2CCCC2)C4)s1 (stereo not shown)
> 1000 | 10 to 100 | C[C@H](CN(C)C)N1C(=O)c2cc3nc(-c4c(N[C@@H](C)Cc5sccc5Cl)cc[nH]c4=O)[nH]c3cc2C1=O
250 to 1000 | 10 to 100 | C[C@@H](Cc1sccc1C(F)(F)F)Nc1cc[nH]c(=O)c1-c1nc2cc3c(cc2[nH]1)CN(CCN1CCCC1)C3=O
250 to 1000 | 100 to 250 | C[C@@H](Cc1ccco1)Nc1cc[nH]c(=O)c1-c1nc2cc3c(cc2[nH]1)CN(CCN1CCCC1)C3=O
100 to 250 | 250 to 1000 | C[C@H](Cc1cccs1)Nc1cc[nH]c(=O)c1-c1nc2cc3c(c(Cl)c2[nH]1)C(=O)N(C1CCN(C)CC1)C3
250 to 1000 | > 1000 | Cc1cc(CC(C)Nc2cc[nH]c(=O)c2-c2nc3cc4c(cc3[nH]2)C(=O)N(CCCN2CCCC2)C4)sc1C (stereo not shown)
100 to 250 | > 1000 | Cc1ccc(CC(C)Nc2cc[nH]c(=O)c2-c2nc3cc4c(cc3[nH]2)C(=O)N(CCCN2CCCC2)C4)s1 (stereo not shown)
250 to 1000 | 250 to 1000 | CC(Cc1ccc(Cl)s1)Nc1cc[nH]c(=O)c1-c1nc2cc3c(cc2[nH]1)C(=O)N(CCCN1CCCC1)C3 (stereo not shown)
> 1000 | 100 to 250 | C[C@@H](Cc1ccco1)Nc1cc[nH]c(=O)c1-c1nc2cc3c(cc2[nH]1)C(=O)N(CCN1CCCC1)C3=O
250 to 1000 | 10 to 100 | Cc1ccsc1C[C@H](C)Nc1cc[nH]c(=O)c1-c1nc2cc3c(cc2[nH]1)C(=O)N(CCN(C)CCS(C)(=O)=O)C3
> 1000 | > 1000 | CC(Cc1cc2ccccc2s1)Nc1cc[nH]c(=O)c1-c1nc2cc3c(cc2[nH]1)C(=O)N(CCCN1CCCC1)C3 (stereo not shown)
> 1000 | > 1000 | CC(Cc1ccc(-c2ccccc2)s1)Nc1cc[nH]c(=O)c1-c1nc2cc3c(cc2[nH]1)C(=O)N(CCCN1CCCC1)C3 (stereo not shown)

Source: patent publication US9249147B2, “Tyrosine kinase inhibitors” (CHEMBRIDGE CORPORATION, priority 2008, dated 2016)
